Measurements from US20220184071A1, “GEPOTIDACIN FOR USE IN THE TREATMENT OF BACTERIAL URINARY TRACT INFECTIONS” (GlaxoSmithKline Intellectual Property Development Limited, priority 2019, published 2022).
Converted amounts (≈) assume the structure as drawn. “And” between values parts separate entries of the source, which are not always exact repeats. Equal entries are not always repeated. “Also recorded” adds a separate entry of the source. Where two headings read alike, the source gives them in different places.

Legend:
Providencia rettgeri = experiment: MIC, Example 5 Method 1; assay type: cell-based; conditions: at least one isolate tested
Acinetobacter pittii = experiment: Phase IIa non-qualifying baseline uropathogen MIC; assay type: cell-based; conditions: baseline uropathogen recovered at <10^5 CFU/mL
Protocol: (§1) This phase IIa single center study evaluated the safety, tolerability, pharmacokinetics, and efficacy of oral gepotidacin 1500 mg BID for 5 days in female subjects with acute cystitis. Clean catch mid-stream urine specimens were obtained for quantitative culture by standard methods. Urine samples were taken from all participants pre-treatment (baseline) and at all post-baseline visits. All urine samples were sent to a central laboratory (PPD Global Clinical Laboratories, Highland Heights, Ky., USA) for Gram stain, quantitative culture, pathogen identification and susceptibility testing. See FIG. 1 for participant disposition and study outline.
(§2) Susceptibility testing by CLSI broth microdilution and gradient diffusion (fosfomycin only) was conducted (CLSI, 2015, Methods for dilution antimicrobial susceptibility tests for bacteria that grow aerobically; approved standard-tenth edition; and CLSI, 2018. Performance Standards for Antimicrobial Susceptibility Testing; Twenty-seventh Informational Supplement M100-S28). Inclusion in the microbiological intent-to-treat population (micro-ITT), required growth of a qualifying baseline uropathogen (≥10^5 CFU/mL). See FIG. 2 for the baseline algorithm.

[1] = system: Citrobacter freundii complex; experiment: Phase IIa non-qualifying baseline uropathogen MIC; assay type: cell-based; conditions: baseline uropathogen recovered at <10^5 CFU/mL
Protocol: as §1, §2

[2] = MIC by CLSI broth microdilution, Example 1 Method 1, gram-negative aerobic organisms; assay type: cell-based; conditions: at least one strain of every organism listed; salt of gepotidacin (such as mesylate salt)
Protocol: Antimicrobial activity was determined by broth microdilution using the CLSI recommended procedure.

[3] = system: All Qualifying Uropathogens; experiment: Phase IIa microbiological response (micro-ITT population); assay type: in vivo, human; conditions: for Microbiological Failure, n (%) (95% Confidence Interval): n 8
S. saprophyticus [4] = experiment: MIC by CLSI agar dilution, Example 1 Method 2; assay type: cell-based, Staphylococcus saprophyticus
Protocol: (§3) Antimicrobial activity was determined in a second study by […] using the CLSI recommended procedure in serial two-fold dilutions and the minimum inhibitory concentration (MIC) was determined as the lowest concentration of the compound that inhibited visible growth.
This study tested gepotidacin by CLSI agar dilution against 51 isolates of S. saprophyticus collected between 2005-2018.
Amikacin, ceftazidime, colistin, fosfomycin, levofloxacin, meropenem, nitrofurantoin and trimethoprim-sulfamethoxazole were included as comparators. MICs for and comparators were determined by agar dilution according CLSI methods.
(§4) MICs were determined according to CLSI agar dilution guidelines.

[5] = Plasma and urine pharmacokinetics, phase IIa study in women with acute uUTI; assay type: in vivo, human; conditions: for Cmax: read-out: Plasma Cmax, Geometric Mean (% CVb); for AUC: po, uUTI patients, read-out: urine AUC[0-tau]
Protocol: Bronchoalveolar lavage samples were collected to determine gepotidacin exposures in ELF and AM following a single 1000 mg IV infusion over 2 hours to healthy subjects. Saliva exposure was assessed in healthy volunteers following 1500 mg oral single dose. Gepotidacin exposures in urine was assessed in women with acute uUTI following 1500 mg BID oral doses for 5 days.
as §1
Serial blood and urine PK sampling were performed for the first dose of study treatment on Day 1 and for the time-matched dose on Day 4. Participants took all doses of gepotidacin with food and remained in the clinic to complete a total of 10 doses. Participants were instructed to return for the TOC (Day 10 to 13) and Follow-up (Day 28±3) Visits.
(§5) For pharmacokinetic assessments, serial blood and urine samples for the assessment of gepotidacin PK concentrations were collected out to 12 hours post dose (T) following the morning dose on Days 1 and 4. CT (trough) concentrations were collected on Days 1-5. PK concentrations of gepotidacin in plasma and urine were measured using a validated LC-MS/MS bio-analytical assay.

C. koseri = experiment: Phase IIa PK/PD and microbiological response by uropathogen; assay type: in vivo, human; conditions: Participant 1
Protocol: as §1, §2, §5

S. saprophyticus [6] = experiment: as above; assay type: in vivo, human; conditions: Participant 8
Protocol: as §1, §2, §5

E. coli = experiment: as above; assay type: in vivo, human
Protocol: as §1, §2, §5

K. pneumoniae = experiment: as above; assay type: in vivo, human; conditions: Participant 7
Protocol: as §1, §2, §5

[7] = system: Klebsiella oxytoca, Klebsiella variicola, Proteus hauseri and Proteus peneri; experiment: MIC by CLSI agar dilution, Example 1 Method 2; assay type: cell-based; conditions: in each case against at least one isolate
Protocol: as §3, §4

[8] = system: coagulase-negative staphylococci; experiment: MIC by CLSI broth microdilution, Example 5 Method 1; assay type: cell-based
Protocol: (§6) Gepotidacin was tested against 101 coagulase-negative staphylococci and 105 viridans streptococci in serial two-fold dilutions and the minimum inhibitory concentration (MIC) was determined as the lowest concentration of the compound that inhibited visible growth. All of the clinical isolates were collected in 2009-2012 from patient infections from North America, Europe, Latin America and Asia-Pacific medical centers and were mainly obtained from patients with documented nosocomial and community-acquired respiratory tract infections, bloodstream infections and skin and skin structure infections. Ceftriaxone, meropenem, penicillin, levofloxacin, moxifloxacin and linezolid were included as comparators when testing the viridans streptococci isolates. Oxacillin, levofloxacin, moxifloxacin and linezolid, were included as comparators when testing the coagulase-negative staphylococci isolates. MICs were determined by broth microdilution according to CLSI methods.

viridans streptococci = experiment: as above; assay type: cell-based; conditions: 105 isolates
Protocol: as §6

Morganella morganii = experiment: MIC, Example 5 Method 1; assay type: cell-based; conditions: at least one isolate tested

Compound: O=c1ccc2ncc(=O)n3c2n1C[C@H]3CN1CCC(NCc2cc3c(cn2)OCCC3)CC1 [gepotidacin, (2R)-2-({4-[(3,4-dihydro-2H-pyrano[2,3-c]pyridin-6-ylmethyl)amino]-1-piperidinyl}methyl)-1,2-dihydro-3H,8H-2a,5,8a-triazaacenaphthylene-3,8-dione]
- MIC (Providencia rettgeri): 8 µg/mL (≈ 17.8 µM)
- MIC (Acinetobacter pittii): 1 µg/mL (≈ 2.23 µM)
- MIC [1]: 1 µg/mL (≈ 2.23 µM)
- MIC [2]: ≤ 8 µg/mL
- Microbiological Failure, n (%) (95% Confidence Interval) ([3]; Follow-up Visit): 2 (25) (3-65)
- Microbiological Failure, n (%) (95% Confidence Interval) ([3]; TOC Visit): 1 (13) (<1-53)
- reduction in susceptibility to gepotidacin (≥4-fold increase in MIC) ([3]; baseline uropathogen vs same uropathogen at subsequent visits): no evidence of reduction in susceptibility; also recorded: No participants developed post-treatment uropathogens with reduced susceptibility
- % of isolates with MIC ≤0.125 mg/L (S. saprophyticus [4]; 51 isolates): 100%
- MIC90 (S. saprophyticus [4]; Staphylococcus saprophyticus, 51 isolates collected 2005-2018, read-out: MIC90): 0.125 µg/mL (≈ 0.279 µM)
- MIC (S. saprophyticus [4]; Staphylococcus saprophyticus, 51 isolates, read-out: MICs for all S. saprophyticus): ≤ 0.125 µg/mL
- MIC50 (S. saprophyticus [4]; Staphylococcus saprophyticus, n = 51): ≤ 0.06 µg/mL
- MIC90 (S. saprophyticus [4]; n = 51): 0.125 µg/mL (≈ 0.279 µM)
- Number of Isolates at Gepotidacin MIC ≤0.25 mg/L (S. saprophyticus [4]; n = 51): 51
- accumulation in plasma following BID dosing (based on AUC) ([5]; 1500 mg BID oral): 1.4 fold
- dose excreted in urine over the 12-hour dosing interval ([5]; Day 1): Approximately 20%
- Plasma CT, Geometric Mean (% CVb) ([5]; Day 4): 0.851 (41.1) [n = 21] μg/mL
- Urine CT, Geometric Mean (% CVb) ([5]; Day 4): 327 (248.7) [n = 21] μg/mL
- dose excreted in urine over the 12-hour dosing interval ([5]; Day 4): 31%
- Steady state attained by ([5]; based on trough plasma concentrations): ≤ 3 days
- concentration at 12 h ([5]; female, human, in vivo, over the 12-hour dosing interval, 1500 mg BID oral, read-out: minimum / steady-state trough urine concentrations (remained above a MIC of)): > 4000 ng/mL
- AUC(0-t) ([5]; female, human, plasma, oral, 1500 mg, Day 1, read-out: Plasma AUC(0-T), Geometric Mean (% CVb)): 20.2 µg·h/mL
- Cmax ([5]; female, human, plasma, oral, 1500 mg, Day 1): 5890 ng/mL
- AUC(0-t) ([5]; female, human, plasma, oral, 1500 mg, Day 4, read-out: Plasma AUC(0-T), Geometric Mean (% CVb)): 29.3 µg·h/mL
- Cmax ([5]; female, human, plasma, oral, 1500 mg, Day 4): 8440 ng/mL
- Tmax ([5]; female, human, plasma, oral, 1500 mg, plasma, Day 1, read-out: median Tmax): 1.5 h
- Tmax ([5]; female, human, plasma, oral, 1500 mg, plasma, Day 4, read-out: median Tmax): 1.92 h
- Tmax ([5]; female, human, plasma, oral, 1500 mg, plasma, Days 1 and 4, read-out: median Tmax values): 1.5 to 1.92 h
- half-life ([5]; female, human, plasma, oral, 1500 mg, read-out: effective elimination half-life (converted)): 6.6 h
- AUC(0-t) ([5]; female, human, urine, oral, 1500 mg, Day 1, read-out: Urine AUC(0-T), Geometric Mean (% CVb)): 3740 µg·h/mL
- AUC(0-t) ([5]; female, human, urine, oral, 1500 mg, Day 4, read-out: Urine AUC(0-T), Geometric Mean (% CVb)): 5970 µg·h/mL
- AUC(0-t) ([5]; female, human, urine, oral, 1500 mg, steady state, Day 4, read-out: Urinary AUC(0-24)): 11900 µg·h/mL
- Kp ([5]; female, human, urine, oral, 1500 mg, read-out: Steady-state urine exposures (AUC[0-24]) exceeded free plasma exposures by): ~300
- AUC ([5]; female, human, urine, 1500 mg, Day 1, 1500 mg BID oral): 3740 µg·h/mL
- AUC ([5]; female, human, urine, 1500 mg, Day 4, 1500 mg BID oral): 5970 µg·h/mL
- Urine Ctau ([5]; from Day 3 onwards, 1500 mg BID oral): 322 to 352 µg/mL
- renal excretion ([5]; healthy subjects (comparison)): 7.5 % of dose
- free plasma AUC(0-24) ([5]; steady state, Day 4): 39.4 µg·h/mL and 39.3 µg·h/mL
- renal excretion ([5]; uUTI participants): 20 % of dose
- Microbiological success at Follow-up (C. koseri): Failure
- Microbiological success at TOC (C. koseri): Success
- Microbiological success at Follow-up (S. saprophyticus [6]): Success
- Microbiological success at TOC (S. saprophyticus [6]): Success
- Microbiological success at Follow-up (E. coli; Participant 2): Success
- Microbiological success at TOC (E. coli; Participant 2): Success
- Microbiological success at Follow-up (E. coli; Participant 3): Success
- Microbiological success at TOC (E. coli; Participant 3): Success
- Microbiological success at Follow-up (E. coli; Participant 4): Success
- Microbiological success at TOC (E. coli; Participant 4): Success
- Microbiological success at TOC (E. coli; Participant 5, failure due to an out of stability urine specimen): Failure^b
- Microbiological success at Follow-up (E. coli; Participant 5, failures at TOC considered failures at Follow-up): Failure^c
- Microbiological success at Follow-up (E. coli; Participant 6, MDR): Success
- Microbiological success at TOC (E. coli; Participant 6, MDR): Success
- Microbiological success at Follow-up (K. pneumoniae): Success
- Microbiological success at TOC (K. pneumoniae): microbiological success
- Microbiological success at TOC (K. pneumoniae; listed as GEP): Success
- MIC [7]: ≥ 4 µg/mL
- MIC90 ([8]; 101 isolates): 0.5 µg/mL (≈ 1.11 µM)
- MIC90 fold lower than the comparators tested ([8]; coagulase-negative staphylococci and viridans streptococci, except meropenem and moxifloxacin against viridans group streptococci): 2 to 64 fold
- MIC90 (viridans streptococci): 0.5 µg/mL (≈ 1.11 µM)
- MIC (Morganella morganii): 4 µg/mL (≈ 8.92 µM)
